# Source: patent US20220265646A1, “PIEZO AGONISTS FOR PREVENTING OR REVERTING ABNORMAL AMYLOID DEPOSITION” (ITÄ-SUOMEN YLIOPISTO, priority 2019, published 2022)
# Tests used:
# [1] = biological target: T1, Piezo channels in red blood cells (Mus musculus, UniProt E2JF22); test: Red blood cell (RBC) Ca2+ flux by flow cytometry; type: cell-based; settings: 10 uM Yoda1, 17-23 weeks of age
# T1 construct: from tissue; host or cells: red blood cells from blood of 5xFAD transgenic mice and wild-type controls
# Procedure: The blood samples (50-100 μl) were collected from 5xFAD mice at different ages (13-15 weeks, 15-17 weeks, 17-19 weeks, 19-21 weeks and 21-23 weeks of age) for analysis of RBC Ca2 flux. Shortly, the blood samples were collected in Eppendorf tubes with sodium citrate to prevent coagulation. Then the samples were filtered through 100 μm filters to remove possible contaminants and aggregates, followed by two times wash with PBS (5 mins, 300g, RT) to remove plasma. 50 μl of red blood cells were transferred to dean tube and resuspended in 200 μl PBS (250 μl total volume of cell suspension). 250 μl of Fluo4 stock solution was added and cells were incubated for 30 minutes at 37° C. in dark. […] The Ca2+ flux was recorded by CytoFlex at high 60 μl/min flow rate. Recording was started at 20 sec run after the flow rate is stabilized, After 20 sec recording (baseline fluorescence), the Yoda1 at final concentration 10 μM was applied, at 4 min 20 sec time point (4 minutes after Yoda1 is added) ionomycin at 10 μM final concentration is added as positive control and sample is continued running until 6 min were up. Mean fluorescence intensity was measured using gates at different time points—baseline (before application of Yoda1 10 μM), at 1 min, 2 min, 3 min, at 4 min of recording. […]
# The samples were recorded for 6 minutes. […]
# [2] = system: Balb-c mice subjected to pMCAo; test: Permanent middle cerebral artery occlusion (pMCAo) ischemic stroke model: MRI lesion size and adhesive removal test; type: in vivo, mouse; settings: 1.78 mg/kg i.v.
# Procedure: Permanent middle cerebral artery occlusion for modelling ischemic stroke and treatment with Yoda. Balb-c mice were subjected to permanent middle cerebral artery occlusion (pMCAo). The anaesthesia was induced by 5% isoflurane in 30% oxygen and 70% nitrogen as a carrier gas and maintained with 2% isoflurane during the surgical operation. The temperature was kept constant (37 ±1° C.) using the heating blanket connected to the rectal probe (Harvard apparatus, PanLab, Barcelona, Spain). The temporal muscle was detached from the scull and a hole (1 mm of diameter) was drilled to temporal bone. After removing the dura the exposed left MCA was lifted and occluded using a thermocoagulator (Aaron Medical Industries Inc., Clearwater, Fla., USA). […]
# Lesion size measurement. The lesion volume was measured in vivo at 24 h and 72 h post ischemia by magnetic resonance imaging (MRI) using a vertical 9.4 T Oxford NMR 400 magnet (Oxford Instrument PLC, Abington, UK). […] Multislice T2-weighted images (repetition time 3000 ms, echo time 40 ms, matrix size 128×256, field of view 19.2×19.2 mm^2, slice thickness 0.8 mm and number of slices 12) were taken and the obtained images were analyzed with in-house made Aedes software under the Matlab environment (Math-works, Natick, Mass., USA).
# T1 sequence (E2JF22 whole entry): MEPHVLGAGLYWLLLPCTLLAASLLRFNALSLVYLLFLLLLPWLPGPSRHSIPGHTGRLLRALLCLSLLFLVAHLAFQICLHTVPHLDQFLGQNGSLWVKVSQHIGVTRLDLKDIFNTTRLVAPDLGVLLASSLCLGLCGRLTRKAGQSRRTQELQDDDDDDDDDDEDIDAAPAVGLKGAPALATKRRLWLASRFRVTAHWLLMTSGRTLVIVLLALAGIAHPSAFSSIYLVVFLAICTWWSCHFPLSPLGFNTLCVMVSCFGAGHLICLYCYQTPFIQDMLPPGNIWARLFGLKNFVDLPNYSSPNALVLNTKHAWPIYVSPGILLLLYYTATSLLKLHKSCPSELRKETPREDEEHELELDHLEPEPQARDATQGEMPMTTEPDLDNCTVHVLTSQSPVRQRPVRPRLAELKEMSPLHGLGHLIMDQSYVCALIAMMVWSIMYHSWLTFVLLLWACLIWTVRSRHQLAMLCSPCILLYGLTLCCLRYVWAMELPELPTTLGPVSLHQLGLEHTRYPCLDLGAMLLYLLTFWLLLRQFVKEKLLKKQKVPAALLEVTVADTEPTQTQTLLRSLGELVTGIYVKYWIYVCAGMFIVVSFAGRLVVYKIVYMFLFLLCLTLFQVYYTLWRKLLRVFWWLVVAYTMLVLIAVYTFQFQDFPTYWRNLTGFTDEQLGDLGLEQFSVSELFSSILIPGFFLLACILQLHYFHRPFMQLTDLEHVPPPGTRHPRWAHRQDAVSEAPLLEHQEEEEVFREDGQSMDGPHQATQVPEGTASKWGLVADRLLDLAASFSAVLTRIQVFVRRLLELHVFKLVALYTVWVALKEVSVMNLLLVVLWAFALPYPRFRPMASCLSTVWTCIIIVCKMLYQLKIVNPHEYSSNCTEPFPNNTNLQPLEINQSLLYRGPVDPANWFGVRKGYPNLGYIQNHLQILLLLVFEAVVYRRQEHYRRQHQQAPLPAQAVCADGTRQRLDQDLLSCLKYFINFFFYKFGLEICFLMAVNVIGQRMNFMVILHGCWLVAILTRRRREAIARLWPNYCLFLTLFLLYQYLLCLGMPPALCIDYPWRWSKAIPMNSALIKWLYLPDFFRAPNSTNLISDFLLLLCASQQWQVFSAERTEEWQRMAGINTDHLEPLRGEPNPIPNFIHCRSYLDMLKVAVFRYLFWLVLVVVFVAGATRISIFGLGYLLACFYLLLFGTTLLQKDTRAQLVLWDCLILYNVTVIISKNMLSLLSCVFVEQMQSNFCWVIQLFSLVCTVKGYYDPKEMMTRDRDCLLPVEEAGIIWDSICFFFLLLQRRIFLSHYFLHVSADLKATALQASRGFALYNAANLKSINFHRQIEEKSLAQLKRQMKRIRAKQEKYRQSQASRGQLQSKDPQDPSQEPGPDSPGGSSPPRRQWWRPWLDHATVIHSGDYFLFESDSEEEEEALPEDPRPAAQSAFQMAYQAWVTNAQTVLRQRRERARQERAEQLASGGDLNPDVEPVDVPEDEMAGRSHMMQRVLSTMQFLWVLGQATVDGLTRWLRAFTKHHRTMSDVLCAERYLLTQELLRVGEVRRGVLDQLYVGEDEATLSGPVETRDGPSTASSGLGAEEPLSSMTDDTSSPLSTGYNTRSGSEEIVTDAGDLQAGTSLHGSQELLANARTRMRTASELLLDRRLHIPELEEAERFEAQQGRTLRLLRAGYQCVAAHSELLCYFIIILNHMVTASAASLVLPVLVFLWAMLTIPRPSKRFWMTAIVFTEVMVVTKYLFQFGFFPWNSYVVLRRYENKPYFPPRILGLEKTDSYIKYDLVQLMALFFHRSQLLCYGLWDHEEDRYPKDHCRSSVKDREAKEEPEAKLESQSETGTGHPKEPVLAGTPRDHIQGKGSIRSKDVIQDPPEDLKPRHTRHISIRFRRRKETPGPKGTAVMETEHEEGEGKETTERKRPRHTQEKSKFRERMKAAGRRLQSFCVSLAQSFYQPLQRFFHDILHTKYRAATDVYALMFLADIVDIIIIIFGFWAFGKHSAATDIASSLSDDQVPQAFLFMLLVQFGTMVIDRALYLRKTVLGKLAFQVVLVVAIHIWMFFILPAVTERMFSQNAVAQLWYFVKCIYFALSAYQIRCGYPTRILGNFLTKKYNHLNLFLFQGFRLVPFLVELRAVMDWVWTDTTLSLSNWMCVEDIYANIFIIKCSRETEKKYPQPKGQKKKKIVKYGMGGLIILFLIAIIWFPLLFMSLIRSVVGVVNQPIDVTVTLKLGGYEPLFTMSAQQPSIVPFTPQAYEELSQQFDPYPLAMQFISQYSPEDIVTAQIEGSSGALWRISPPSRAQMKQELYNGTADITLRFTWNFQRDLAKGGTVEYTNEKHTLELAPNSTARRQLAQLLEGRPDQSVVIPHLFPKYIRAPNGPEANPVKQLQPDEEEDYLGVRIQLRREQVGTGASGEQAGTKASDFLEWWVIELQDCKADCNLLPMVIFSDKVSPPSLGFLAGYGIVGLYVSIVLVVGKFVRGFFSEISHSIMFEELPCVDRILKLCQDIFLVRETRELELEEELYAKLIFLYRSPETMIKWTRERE
compound,measurement,setting,value
Clc1cccc(Cl)c1CSc1nnc(-c2cnccn2)s1 [Yoda1],"Yoda1 elicited calcium responses in red blood cells, TG 5xFAD versus age-matched WT",[1],significantly lower
same,lesion size measured with MRI,"[2]; 1 DPI and 3 DPI, versus vehicle",significantly smaller lesion size
same,ability to sense adhesive patches post stroke (adhesive removal test),[2]; ischemic mice,no apparent deficits
